Reference: paper PMC7658347, “The cryo-EM structure of a γ-TuSC elucidates architecture and regulation of minimal microtubule nucleation systems” (Nature Communications, 2020)

Biological target: T1, C. albicans γ-TuSC (γ-tubulin small complex; Spc97, Spc98, γ-tubulin/Tub4) (Candida albicans, UniProt O93807)
T1 construct: full-length, codon-optimized genes, expressed in SF21 insect cells; heterotetramer; N-terminal 91 (Spc97) and 149 (Spc98) residues not resolved; with Spindle pole body component (Spc97); Spindle pole body component (Spc98)
T1 sequence (O93807 1-502): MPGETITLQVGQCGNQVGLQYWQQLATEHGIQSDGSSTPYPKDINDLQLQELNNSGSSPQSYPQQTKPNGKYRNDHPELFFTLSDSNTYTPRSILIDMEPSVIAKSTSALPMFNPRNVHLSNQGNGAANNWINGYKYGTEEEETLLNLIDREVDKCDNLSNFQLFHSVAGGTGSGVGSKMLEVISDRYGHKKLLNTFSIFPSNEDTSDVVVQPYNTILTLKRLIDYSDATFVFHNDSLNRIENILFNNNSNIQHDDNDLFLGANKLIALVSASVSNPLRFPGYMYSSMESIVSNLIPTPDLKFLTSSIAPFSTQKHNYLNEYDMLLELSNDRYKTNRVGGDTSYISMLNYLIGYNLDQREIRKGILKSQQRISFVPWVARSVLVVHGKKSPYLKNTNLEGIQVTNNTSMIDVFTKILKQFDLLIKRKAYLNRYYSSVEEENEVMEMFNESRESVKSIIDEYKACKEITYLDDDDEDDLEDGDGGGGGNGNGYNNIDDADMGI
T1 sequence (Q59PZ2 1-871 partner): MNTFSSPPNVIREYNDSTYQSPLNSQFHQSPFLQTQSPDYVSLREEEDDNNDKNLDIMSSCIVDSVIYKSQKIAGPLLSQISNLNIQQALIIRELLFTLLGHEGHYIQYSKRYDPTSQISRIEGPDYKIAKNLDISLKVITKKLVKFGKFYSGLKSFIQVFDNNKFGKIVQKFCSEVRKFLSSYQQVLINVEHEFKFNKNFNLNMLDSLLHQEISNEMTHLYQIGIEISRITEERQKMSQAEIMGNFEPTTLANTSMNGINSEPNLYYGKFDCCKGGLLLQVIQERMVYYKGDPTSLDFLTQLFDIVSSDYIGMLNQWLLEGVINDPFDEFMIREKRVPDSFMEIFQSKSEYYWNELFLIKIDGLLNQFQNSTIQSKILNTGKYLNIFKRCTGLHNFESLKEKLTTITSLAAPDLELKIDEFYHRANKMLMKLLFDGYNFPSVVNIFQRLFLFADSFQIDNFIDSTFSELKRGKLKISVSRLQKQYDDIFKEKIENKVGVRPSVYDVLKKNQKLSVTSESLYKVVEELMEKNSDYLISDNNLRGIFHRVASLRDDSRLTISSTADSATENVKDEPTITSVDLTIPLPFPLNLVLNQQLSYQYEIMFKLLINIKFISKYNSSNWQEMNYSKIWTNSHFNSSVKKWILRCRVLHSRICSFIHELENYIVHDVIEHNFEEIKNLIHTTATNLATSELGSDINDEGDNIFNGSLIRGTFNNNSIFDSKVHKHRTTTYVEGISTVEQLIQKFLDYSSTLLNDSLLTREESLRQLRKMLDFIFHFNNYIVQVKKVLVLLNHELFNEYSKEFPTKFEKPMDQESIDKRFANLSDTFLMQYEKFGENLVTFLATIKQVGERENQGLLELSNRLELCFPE
T1 sequence (A0A1D8PS42 1-785 partner): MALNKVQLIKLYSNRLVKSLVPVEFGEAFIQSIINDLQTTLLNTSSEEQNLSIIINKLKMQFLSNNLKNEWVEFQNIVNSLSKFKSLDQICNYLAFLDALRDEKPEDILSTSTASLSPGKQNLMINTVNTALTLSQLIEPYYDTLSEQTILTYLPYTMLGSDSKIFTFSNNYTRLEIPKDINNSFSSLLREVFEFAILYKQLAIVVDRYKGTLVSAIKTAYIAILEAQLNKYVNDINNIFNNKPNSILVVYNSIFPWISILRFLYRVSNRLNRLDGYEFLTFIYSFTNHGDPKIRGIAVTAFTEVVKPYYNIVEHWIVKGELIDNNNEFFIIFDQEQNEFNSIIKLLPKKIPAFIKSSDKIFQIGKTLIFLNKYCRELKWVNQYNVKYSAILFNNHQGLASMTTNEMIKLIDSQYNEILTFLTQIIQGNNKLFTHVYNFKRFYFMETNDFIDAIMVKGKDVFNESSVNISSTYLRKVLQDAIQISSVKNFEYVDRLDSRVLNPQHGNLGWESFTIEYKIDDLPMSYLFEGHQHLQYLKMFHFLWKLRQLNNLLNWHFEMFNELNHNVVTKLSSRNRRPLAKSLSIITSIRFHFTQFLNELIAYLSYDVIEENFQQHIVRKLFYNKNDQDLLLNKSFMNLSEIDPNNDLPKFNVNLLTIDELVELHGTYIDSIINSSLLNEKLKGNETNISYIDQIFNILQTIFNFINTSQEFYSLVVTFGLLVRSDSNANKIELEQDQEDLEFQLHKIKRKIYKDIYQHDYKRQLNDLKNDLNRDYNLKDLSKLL
Assay: cryo-EM structure ([…] Å)
Conditions: co-purified nucleotide, none added; nucleotide-binding pocket of γ-tubulin; assigned from density lacking γ-phosphate; Table 1 lists 0 ligands in the refined model

For `Nc1nc2c(ncn2[C@@H]2O[C@H](COP(=O)(O)OP(=O)(O)O)[C@@H](O)[C@H]2O)c(=O)[nH]1` [GDP], the “cryo-EM structure (3.6 Å)” value was “Our cryo-EM density of the C. albicans γ-TuSC indicates binding of GDP, rather than GTP”.
